# Test results as given in patent US20220381657A1, “METHOD FOR PREPARING BIOLOGICAL MATERIAL HAVING EXCELLENT LIGHT-TRANSMITTING PROPERTY” (RIKEN, priority 2016, published 2022).
# Counter-ions that a name gives are not always drawn. Like-named read-outs stand apart in the source and are kept apart here.
# Key:
# EGFP = EGFP (Aequorea victoria, UniProt P42212, F64L/H231L/S65T); format: biochemical; details: for 2nd quenching assay EGFP fluorescence: Table 3; for retention of fluorescence of a fluorescent protein: stated in the description
# Description: (FIG. 7). […] A mouse hemisphere was treated with use of each 10 wt % chemical solution at 37° C. for 3 days, and was washed with PBS. Subsequently, the mouse hemisphere was subjected to refractive index adjustment with CUBIC-2A.
# [1] = Refractive index of high-concentration aqueous solution; format: physicochemical
# Text: The refractive index of an aqueous solution is commonly known to increase in a solute concentration-dependent manner, and the refractive index of a reagent per unit weight of the reagent varies among individual reagents. Accordingly, two properties are required in order to prepare a high refractive index aqueous solution: (1) an extremely high water-solubility and (2) a […] which allows achieving a high refractive index in a low-concentration aqueous solution.
# [2] = for 400 nm: OD at 400 nm of the chemical
# bovine coagulated blood = assay: Decoloring screening: heme eluted from bovine coagulated blood (OD420-OD700); details: decolorization; for 700 nm calibrated 420 nm Average: OD420 calibrated by OD700; for integrated value 500-700 nm Average: integrated absorbance 500-700 nm
# Description: A high-throughput screening system for evaluating the decoloring ability of various compounds was constructed. The screening system involved adding an aqueous solution of each compound to bovine coagulated blood and then measuring the absorbance of heme collected in the supernatant.
# Specifically, to bovine blood, an equal amount of 8% PFA solution was added, and reacted at 4° C. overnight. The mixed liquid was centrifuged at 1500×g for 5 minutes, and the supernatant containing PFA was discarded. Then, the same amount of PBS as the original volume of blood was added to prepare a coagulated blood sample. To 150 μL of 10 wt % aqueous solution of each compound, 50 μL of the coagulated blood sample was added, and reacted at 37° C. overnight. The reaction solution was centrifuged at 1500×g for 5 minutes, and then 100 μL of the supernatant was added to a plate so as to be subjected to absorbance measurement. A sample which is suspended in water instead of being dissolved in the water has a weak decoloring effect, but none the less has a high absorbance value. […]
# [3] = system: fixed brain tissue suspension; assay: 1st delipidation assay: solubilization of fixed brain tissue suspension, turbidity at 600 nm; parameters: species or system mice; details: Table 1; 10 wt % chemical, fixed mouse brain suspension, 37° C. overnight; PBS = 1.000
# Description: Specifically, brains taken out of mice were sheared with a utility knife and then were disrupted by ultrasonication. To each of the resultant suspensions, an equal volume of 8% PFA solution was added to perform fixation at 4° C. for 1 hour. The resultant mixture was centrifuged to remove the supernatant, and the fixed brain tissue was washed with PBS for 3 times. PBS was added so as to obtain 2 mL of a fixed brain tissue suspension per brain. The fixed brain tissue suspension was diluted by 3.5 folds. To 20 μL of the resultant suspension, 130 μL of each 10 wt % chemical was added and was shaken at 37° C. overnight. Thus obtained mixed solutions were subjected to absorbance (turbidity) measurement at 600 nm. It is expected that a chemical solution which reduces the turbidity of a fixed brain suspension allows reducing light scattering by solubilizing lipids, which act as a scattering factor, in the brain tissue.
# [4] = Table 3, chemical conc. 70 wt %
# [5] = Table 3, chemical conc. 80 wt %
Compound,"RI [1, 4]",pH (Table 3),OD400 ([2]; Table 3),pH ([…]),700 nm calibrated 420 nm Average (bovine coagulated blood),integrated value 500-700 nm Average (bovine coagulated blood),Fluorescence quench Average (Serius; relative fluorescence),400 nm [2],also measured
"CN(C)C(=O)Oc1cccc([N+](C)(C)C)c1 [#0864, Neostigmine bromide]",1.4830,–,–,–,–,–,–,–,2nd quenching assay EGFP fluorescence (EGFP): quench free; retention of fluorescence of a fluorescent protein (EGFP): allowing retention of fluorescence of a fluorescent protein
"CN(C)CCOC(c1ccccc1)c1ccccc1.Cl [#0809, Diphen- hydramine hydrochloride]",1.4990,–,–,–,–,–,–,–,–
"CNCC(O)c1cccc(O)c1.Cl (racemic) [#1142, DL- Phenylephrine hydrochloride]",–,–,–,–,–,–,–,–,RI [1]: 1.4954
"CCCC[n+]1ccccc1.[Cl-] [#0415, 1-Butyl-pyridinium chloride]",–,5.5,0.055,–,–,–,–,–,"RI ([1]; Table 3, chemical conc. 90 wt %): 1.4824"
"Cc1cccc(C)c1NC1=NCCCS1.Cl [#1612, Xylazine hydrochloride]",1.4956,–,–,–,–,–,–,–,–
"C[N+](C)(Cc1ccccc1)c1ccccc1.[Cl-] [#0450, Benzyl- dimethyl- phenyl- ammonium chloride]",1.5002,6.7,0.052,–,–,–,–,–,2nd quenching assay EGFP fluorescence (EGFP): quench free; retention of fluorescence of a fluorescent protein (EGFP): allowing retention of fluorescence of a fluorescent protein
"Cc1cccc[n+]1[O-] [#1140, 2-Methyl-pyridine N-oxide]",1.4919,6.2,0.049,–,–,–,–,–,–
"[O-][n+]1ccccc1 [#1078, Pyridine N- oxide]",–,6.1,0.054,–,–,–,–,–,"RI ([1]; Table 3, chemical conc. 60 wt %): 1.4795"
"NCc1cccnc1 [#1102, 3-Picolylamine]",1.4895,11.6,0.056,11.6,2.46,1.32,0.77,0.056,–
"CCCC[n+]1ccccc1.[Br-] [#0315, 1-Butyl-pyridinium bromide]",–,5.6,0.048,–,–,–,–,–,"RI ([1]; Table 3, chemical conc. 85 wt %): 1.5090"
"CN(C)C(=O)c1ccccc1 [#0788, N,N- Dimethyl- benzamide]",1.4833,10.7,0.049,10.7,1.26,1.08,0.76,0.049,2nd quenching assay EGFP fluorescence (EGFP): quench free; retention of fluorescence of a fluorescent protein (EGFP): allowing retention of fluorescence of a fluorescent protein
Tween ® 40 [#1455],–,–,–,6.4,1.38,1.21,0.64,0.083,1st delipidation assay Relative OD600 [3]: 0.073; pH (Table 1): 6.4; OD400 ([2]; Table 1): 0.083
"CN(C)C(=N)N(C)C [#1444, 1,1,3,3-Tetramethylguanidine]",–,–,–,12.4,1.38,1.15,0.14,0.072,1st delipidation assay Relative OD600 [3]: 0.124; pH (Table 1): 12.4; OD400 ([2]; Table 1): 0.072
"CCCC[N+](CCCC)(CCCC)Cc1ccccc1.[Cl-] [#0307, Benzyltributyl- ammonium chloride]",–,–,–,–,–,–,–,–,"RI [1, 5]: 1.4939"
"NCCN1CCNCC1 [#0338, N-(2-Aminoethyl) piperazine]",–,12.4,0.062,–,–,–,–,–,"RI ([1]; Table 3, chemical conc. 75 wt %): 1.4794"
"NCCCn1ccnc1 [#0484, 1-(3-aminopropyl)imidazole]",–,–,–,12.9,4.81,2.64,0.72,0.05,retention of fluorescence of a fluorescent protein (EGFP): allows fluorescence of a fluorescent protein to be retained
"Cc1cc(=O)n(-c2ccccc2)n1C [#0640, 2,3-Dimethyl-1-phenyl-5-pyrazolone]",–,–,–,–,1.22,0.93,–,–,2nd quenching assay EGFP fluorescence (EGFP): quench free; retention of fluorescence of a fluorescent protein (EGFP): allowing retention of fluorescence of a fluorescent protein; RI [1]: 1.4966; Fluorescence quench Average (Serius): 0.84
"CN(C)CCSSCCN(C)C [#0299, Bis(2-dimethyl-aminoethyl) disulfide dihydrochloride]",1.4937,–,–,–,–,–,–,–,–
"NCCCNCCCN [#0785, 3,3′-Diamino-dipropylamine]",–,–,–,–,2.09,1.48,–,–,"RI ([1]; Table 3, chemical conc. 100 wt %): 1.4895; Fluorescence quench Average (Serius): 0.62"
"C[C@H](CCC(=O)[O-])[C@H]1CC[C@H]2[C@@H]3CC[C@@H]4C[C@H](O)CC[C@]4(C)[C@H]3C[C@H](O)[C@]12C.[Na+] [#0562, Sodium deoxycholate]",–,–,–,8.3,1.18,0.98,1.08,0.054,1st delipidation assay Relative OD600 [3]: 0.170; pH (Table 1): 8.3; OD400 ([2]; Table 1): 0.054
"CCCCCCCCCCCC[n+]1ccccc1.[Cl-] [#0635, 1-Dodecylpyridinium chloride]",–,–,–,8.9,3.86,3.57,1.04,0.053,pH (Table 1): 8.9; retention of fluorescence of a fluorescent protein (EGFP): allows fluorescence of a fluorescent protein to be retained; OD400 ([2]; Table 1): 0.053
"CN(C)CCSC(=N)N [#0830, S-[2-(Dimethyl-amino)ethyl] isothiourea-dihydrochloride]",1.5021,5.4,0.047,–,–,–,–,–,–
"NCC1CCCC(CN)C1 (stereo not drawn) [#0070, 1,3-Bis(aminomethyl) cyclohexane]",–,–,–,13.0,3.15,1.91,0.62,0.079,1st delipidation assay Relative OD600 [3]: 0.286; pH (Table 1): 13.0; OD400 ([2]; Table 1): 0.079
Decyldimethyl(3- sulfopropyl)ammonium [#0651],–,–,–,7.5,3.73,3.28,0.97,0.048,pH (Table 1): 7.5; retention of fluorescence of a fluorescent protein (EGFP): allows fluorescence of a fluorescent protein to be retained; OD400 ([2]; Table 1): 0.048
"Cc1ccnc(C)c1 [#1312, 2,4-Lutidine]",–,–,–,7.6,2.47,2.59,0.84,0.051,1st delipidation assay Relative OD600 [3]: 0.325; pH (Table 1): 7.6; OD400 ([2]; Table 1): 0.051
"Cc1ccc(C(=O)C(C)CN2CCCCC2)cc1.Cl (stereo not drawn) [#1392, Tolperisone hydrochloride]",1.4939,5.2,0.056,–,–,–,–,–,–
"CCN(CC)C(=O)c1cccnc1 [#0609, N,N-Diethyl- nicotinamide]",–,6.4,0.056,–,–,–,–,–,"RI [1, 5]: 1.4928"
"Cc1cccc(C)n1 [#1008, 2,6-Lutidine]",–,–,–,9.9,2.00,2.16,0.71,0.063,1st delipidation assay Relative OD600 [3]: 0.314; pH (Table 1): 9.9; OD400 ([2]; Table 1): 0.063
"Cc1cc[n+]([O-])cc1 [#1145, 4- Methylpyridine N-oxide]",1.5073,7.3,0.059,–,–,–,–,–,–
